What was measured:
[1] = pH of ZLC neat solution and final diluted samples; type: physicochemical; conditions: neat solution, zinc 2.39% by weight
Description: (§1) A neat solution of ZLC is prepared by 1), reacting 0.5 mole of ZnO powder with 1 mole of lysine HCl in 1 liter of water at room temperature for about 2 hours, and 2) collecting the supernatant through centrifugation followed by filtration using a 0.45 micron membrane. The neat solution has a zinc concentration of 2.39% by weight, and a pH of about 7.03.
(§2) Dilution experiment is conducted by mixing the neat solution with deionized water. The neat solution is diluted by 2×, 4×, 6×, 7×, 8×, 10×, 12×, 16×, 20×, 24×, 28×, and 32×, corresponding to initial zinc concentrations of 1.20%, 0.598%, 0.398%, 0.341%, 0.299%, 0.239%, 0.199%, 0.149%, 0.120%, 0.0996%, 0.0854%, 0.0747%, by weight, respectively. The diluted samples are kept at 37° C., and the rates at which flocculation/precipitation occurred are monitored.
pH values of final diluted samples are suitable for oral care applications. […] These pH values were well within the range of 5.5 to 10, which defines the suitable range for oral care formulations.

[2] = Clarity of oral gel phase batches: absorbance at 610 nm (Lambda 25 UV/VIS), original and diluted; type: physicochemical; conditions: for Absorbance: 610 nm
Description: The clarity of samples with different actives is compared, and the precipitation characteristic of ZLC gel phase by dilution is evaluated. […] Zinc ion concentration in the following batches are all prepared at 0.5% (w/w) zinc level.
Lambda 25 UV/VIS Spectrometer (PerkinElmer) is used to obtain absorbance information for all samples in order to compare the clarity of gel phase between different actives. Absorbance is a logarithmic measure of the amount of light that is absorbed when passing through a substance. Since the particles in the gel absorb light, the more particles existing in solution, the more light absorbed by the gel. Thus, a small number of absorbance of a gel indicates a higher clarity. The absorbance is corrected by using deionized (DI) water as the blank solution under the light source wavelength of 610 nm.

[3] = Deposition/occlusion assay on dentine slices, confocal imaging; parameters: species or system human
Description: The deposition/occlusion assay is conducted using human dentine slices and the neat solution of Example 5. The dentine slices were prepared by cutting human tooth into thin dentine sections of about 800 microns in thickness, choosing a test side, sanding said test side using a sandpaper of about 600 grit, polishing said test side using a Buehler polishing cloth and 5 micron Buehler aluminum oxide, acid-etching said dentine section in 1% (by weight) citric acid solution for about 20 seconds, sonicating said dentine section for 10 minutes, and storing said dentine section in phosphate buffered saline (PBS, pH 7.4).
For treatment, the neat solution is diluted 16-fold with water, yielding a treatment solution with initial zinc concentration of about 0.149% by weight. The dentine section is immersed in the treatment solution for 1 hour at 37° C. The treated dentine section is then removed from the treatment solution, and rinsed 4 times, each time with 1 mL of PBS. The dentine section is then dried using a paper-based tissue and examined under confocal microscope in both XYZ and XYZ modes. Subsequent treatments are conducted in the same manner.
Dentine sections, as prepared in Example 6, are repeatedly treated with ZLC dilutions with initial zinc concentration of 0.0747% by weight. […] The dentine section is examined under the confocal microscope after each treatment.

[4] = pH of oral gel phase batches, original and diluted; type: physicochemical; conditions: original gel phase batch with the named active
[5] = Dilution experiment of ZLC neat solution: visible flocculation/precipitation at 37° C.; type: physicochemical
Description: Various dilutions of ZLC are prepared to evaluate its efficiency in producing visible precipitates and/or flocculation, which can be delivered in situ onto an oral surface or into a dental opening, such as open tubules.
as §1, §2

[6] = Turbidity (percent transmission, TurbiScan) of mouthwash batches, original and diluted; type: physicochemical; conditions: zinc 1.01 wt %
Description: Four 500 g mouthwash batches which contain NaF, ZLC, ZnCl2 and ZnO as active ingredient are formulated with the ingredients shown in Table 1. The objective of this study is to compare the clarity of samples with different actives. Turbidity is evaluated by the percent transmission of light through the solution as measured by a TurbiScan® dispersion stability analyzer. The higher the percent transmission, the more transparent the composition. […] The concentration of zinc ions in ZLC solution is 25300 ppm obtained by ICP (Inductively Coupled Plasma) analysis, which corresponds to approximately 17% weight of ZLC actives in the solution. Zinc ion concentration in all batches is controlled to same level, i.e., 1.01 wt %. Among the four batches, the one that has ZnO as active appears milk white, with 0% transmission, while the other three samples are as clear as the deionized water (Table 2).
All original mouthwash batches are diluted into 2 fold, 4 fold, 8 fold, 16 fold and 32 fold. Turbidity measurements are performed after all solutions are prepared and well shaken. The turbidity data of the samples are shown in Table 3, 4, 5 and 6, for the dilutions of mouthwash containing NaF, ZLC, ZnCl2 and ZnO respectively.

[7] = gel phase batch, 8 fold dilution
[8] = gel phase batch, 16 fold dilution
[9] = original gel phase batch with the named active
[10] = original gel phase batch with the named active, DI water blank, 0.5% (w/w) zinc
[11] = initial zinc 0.0747% (32-fold dilution), 10 minutes at 37° C. each
[12] = neat solution diluted 16-fold, zinc about 0.149%, 1 hour at 37° C. each
[13] = gel phase batch, 2 fold dilution
[14] = gel phase batch, 4 fold dilution
[15] = gel phase batch, 32 fold dilution

Compound | Absorbance [2, 7] | Absorbance [2, 8] | Appearance / dissolution of active in gel phase [2, 9] | Absorbance [2, 10] | pH [4] | Absorbance [2, 13] | Absorbance [2, 14] | Absorbance [2, 15] | other results
[Zn(C6H14N2O2)2Cl]^+Cl^− [ZLC] | 0.1860 | 0.1336 | homogenous solution | 0.1765 | 7.37 | – | – | – | pH [1]: about 7.03; Deposition by confocal imaging after 4 consecutive treatments [3, 11]: significant surface deposition; Deposition/occlusion by confocal imaging after 12 consecutive treatments [3, 11]: complete surface coverage; Visible precipitation during treatment ([3]; initial zinc 0.0747%, 10 minutes at 37° C.): no precipitation is observed by naked eyes; Deposition/occlusion by confocal imaging, first treatment ([3]; neat solution diluted 16-fold, zinc about 0.149%, 1 hour at 37° C.): noticeable deposition; Deposition/occlusion by confocal imaging, second treatment [3, 12]: complete surface coverage, including blocking of substantially all tubule openings; Deposition/occlusion by confocal imaging, third treatment [3, 12]: complete surface coverage and complete blocking of tubule openings; Thickness of surface deposits, second treatment [3, 12]: ≥ 10 microns; Thickness of surface deposits, third treatment [3, 12]: ≥ 25 microns; Flocculation observation two hours after mixing ([5]; additional sample with initial zinc concentration 0.299%): presence of flocculation; Flocculation/precipitation observation after a total of 19 hours ([5]; all samples except initial zinc concentration 1.20%): flocculation and/or precipitation can be observed; Time to some visible flocculation after mixing stock solution with water ([5]; dilutions with initial zinc concentrations 0.149% and 0.199%): ≤ 30 min; Flocculation observation one and a half hours after mixing ([5]; dilutions with initial zinc concentrations between 0.0747% and 0.239%): visible flocculation; Flocculation observation one hour from mixing ([5]; dilutions with initial zinc concentrations between 0.0854% and 0.239%): visible flocculation; Relative amount of precipitate after a total of 19 hours ([5]; initial zinc concentrations between 0.0747% and 0.239%): the most precipitates
[O]=[Zn] [ZnO] | 2.1883 | 1.8638 | not dissolved | 2.4626 | 8.30 | 2.4630 | 2.5340 | 1.0492 | Appearance / clarity of mouthwash batch ([6]; original mouthwash batch with the named active): milk white; Turbidity (% Transmission) ([6]; original mouthwash batch, undiluted): 0%
[Cl-].[Cl-].[Zn+2] [ZnCl2] | 0.1701 | 0.0570 | cloudy | 0.9204 | 5.25 | 0.7315 | 0.3700 | 0.0280 | –
[F-].[Na+] [NaF, Sodium Fluoride] | 0.0107 | 0.0075 | – | 0.0344 | 7.63 | 0.0106 | 0.0104 | 0.0137 | –

Source: patent US9980890B2, “Zinc amino acid halide mouthwashes” (Colgate-Palmolive Company, priority 2012, dated 2018)
